Measured values as given in ChEMBL document CHEMBL4359887, “Hitting on the move: Targeting intrinsically disordered protein states of the MDM2-p53 interaction” (Eur J Med Chem, 2019).

Experiments:
SAOS-2 = assay: Anticancer activity against p53-deleted human Saos2 cells assessed as inhibition of cell viability measured after 5 days by MTT assay; details: SAOS-2, 120 h
U2OS = assay: Anticancer activity against human U2OS cells expressing wild-type p53 assessed as inhibition of cell viability measured after 5 days by MTT assay; details: 120 h

EC50 (U2OS): 130 µM
SMILES: CC(C)(C)NC(=O)[C@H](c1c(C(=O)O)[nH]c2cc(Cl)ccc12)N(C=O)Cc1ccc(OCc2ccccc2Br)cc1
EC50 (SAOS-2): 200 µM
